Data reported in patent US20250213558A1, “T-TYPE CALCIUM CHANNEL MODULATORS COMPRISING A PIPERAZINE OR 1,4-DIAZEPANE CORE AND METHODS OF USE THEREOF” (Praxis Precision Medicines, Inc., priority 2022, published 2025).
Like-named read-outs stand apart in the source and are kept apart here.

Molecular target: T1, Human Cav3.1 calcium channel (Homo sapiens, UniProt O43497)
T1 construct: expressed in transfected cells; host or cells: HEK-293 natClytin/TASK1+Cav3.1 cell line
Assay: Human Cav3.1 calcium channel patch clamp assay (SyncroPatch 384PE; single point and IC50, voltage dependent block)
Assay type: cell-based
Details: for % Inhibition (Single Point Data): patch clamp
Summary of the method: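 Automated whole-cell patch clamp at room temperature, cells held at −120 mV; 100 ms step to −20 mV (resting block), then 1600 ms at −65 mV and a second −20 mV step (voltage-dependent block), every 15 s. Peak currents averaged over last 3 sweeps; % inhibition relative to nickel-sensitive current.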

[1] = voltage dependent block (VDB), HEK-293 natClytin/TASK1+Cav3.1 cell line, read-out: Cav3.1 IC50
[2] = Testing Conc 1.25, HEK-293 natClytin/TASK1+Cav3.1 cell line

T1 sequence (O43497 whole entry): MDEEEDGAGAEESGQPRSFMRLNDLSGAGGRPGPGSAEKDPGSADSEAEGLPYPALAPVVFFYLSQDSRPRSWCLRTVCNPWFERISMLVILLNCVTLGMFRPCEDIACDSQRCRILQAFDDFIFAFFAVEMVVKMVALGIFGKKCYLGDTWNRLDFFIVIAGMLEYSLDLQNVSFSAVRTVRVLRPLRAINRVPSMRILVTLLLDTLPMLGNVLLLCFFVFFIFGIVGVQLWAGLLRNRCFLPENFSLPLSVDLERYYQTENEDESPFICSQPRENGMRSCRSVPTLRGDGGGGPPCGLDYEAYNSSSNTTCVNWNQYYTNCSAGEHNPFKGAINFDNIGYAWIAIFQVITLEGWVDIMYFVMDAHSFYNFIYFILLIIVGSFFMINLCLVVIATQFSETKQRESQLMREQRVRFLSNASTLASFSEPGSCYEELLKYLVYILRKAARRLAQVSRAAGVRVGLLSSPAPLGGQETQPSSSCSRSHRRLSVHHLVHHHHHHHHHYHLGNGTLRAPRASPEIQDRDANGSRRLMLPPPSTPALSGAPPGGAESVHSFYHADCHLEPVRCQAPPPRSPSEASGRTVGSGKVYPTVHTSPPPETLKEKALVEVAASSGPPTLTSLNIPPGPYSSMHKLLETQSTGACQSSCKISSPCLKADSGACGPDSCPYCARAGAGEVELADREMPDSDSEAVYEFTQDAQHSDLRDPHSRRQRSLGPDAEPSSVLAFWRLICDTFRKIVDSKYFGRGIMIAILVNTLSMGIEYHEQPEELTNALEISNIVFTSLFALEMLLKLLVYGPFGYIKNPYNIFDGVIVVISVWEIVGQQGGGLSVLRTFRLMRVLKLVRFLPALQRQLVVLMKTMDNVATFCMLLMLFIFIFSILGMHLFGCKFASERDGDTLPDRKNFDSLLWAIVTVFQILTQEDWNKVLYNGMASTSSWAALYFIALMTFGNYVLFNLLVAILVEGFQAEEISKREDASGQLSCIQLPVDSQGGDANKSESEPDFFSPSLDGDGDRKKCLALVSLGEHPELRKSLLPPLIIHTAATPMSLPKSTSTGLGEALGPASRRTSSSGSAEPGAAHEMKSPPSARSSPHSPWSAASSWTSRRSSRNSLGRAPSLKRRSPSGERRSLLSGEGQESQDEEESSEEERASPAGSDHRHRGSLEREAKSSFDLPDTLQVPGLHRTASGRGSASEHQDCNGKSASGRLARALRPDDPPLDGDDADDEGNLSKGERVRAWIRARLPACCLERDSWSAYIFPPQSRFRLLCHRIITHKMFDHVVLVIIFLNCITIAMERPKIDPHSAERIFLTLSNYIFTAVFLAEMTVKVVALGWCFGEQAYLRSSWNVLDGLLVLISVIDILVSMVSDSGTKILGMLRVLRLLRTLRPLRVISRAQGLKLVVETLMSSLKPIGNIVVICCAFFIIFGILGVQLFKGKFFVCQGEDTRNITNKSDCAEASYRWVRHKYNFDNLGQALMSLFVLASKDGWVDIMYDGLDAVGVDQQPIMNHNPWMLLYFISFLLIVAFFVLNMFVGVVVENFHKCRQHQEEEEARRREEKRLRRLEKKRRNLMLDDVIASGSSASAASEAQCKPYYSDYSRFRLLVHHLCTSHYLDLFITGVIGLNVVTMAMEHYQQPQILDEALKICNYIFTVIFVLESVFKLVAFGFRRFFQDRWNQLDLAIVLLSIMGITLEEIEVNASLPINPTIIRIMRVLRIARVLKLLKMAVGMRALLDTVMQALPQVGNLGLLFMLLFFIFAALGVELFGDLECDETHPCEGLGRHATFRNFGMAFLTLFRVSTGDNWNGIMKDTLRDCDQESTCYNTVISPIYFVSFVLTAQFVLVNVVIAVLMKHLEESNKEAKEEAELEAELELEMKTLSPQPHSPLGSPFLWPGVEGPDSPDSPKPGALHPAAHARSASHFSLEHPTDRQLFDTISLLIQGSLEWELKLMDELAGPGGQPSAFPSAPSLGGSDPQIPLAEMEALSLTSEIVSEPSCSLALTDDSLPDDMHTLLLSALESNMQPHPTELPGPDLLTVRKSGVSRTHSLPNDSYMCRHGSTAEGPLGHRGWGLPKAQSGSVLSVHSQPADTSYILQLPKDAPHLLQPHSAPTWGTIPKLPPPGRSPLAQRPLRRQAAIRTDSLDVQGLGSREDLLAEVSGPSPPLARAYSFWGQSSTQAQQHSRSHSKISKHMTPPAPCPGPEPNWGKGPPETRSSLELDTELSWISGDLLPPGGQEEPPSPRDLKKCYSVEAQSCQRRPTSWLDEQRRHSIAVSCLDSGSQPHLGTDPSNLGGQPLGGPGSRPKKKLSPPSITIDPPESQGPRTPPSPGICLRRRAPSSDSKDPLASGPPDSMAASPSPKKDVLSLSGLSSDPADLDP

Compound	IC50 [1]	% Inhibition (Single Point Data) (Testing Conc 1, HEK-293 natClytin/TASK1+Cav3.1 cell line)	% Inhibition (Single Point Data) [2]	IC50
CC(C)(C)CC(=O)N1C2CC1CN(Cc1nc3c(Cl)cc(F)cc3[nH]1)C2 [Compound 116]	2.46 µM	–	–	–
CC(C)(C)NC(=O)CN1CC2CCC1CN2CC(=O)NC12CC3CC(CC(C3)C1)C2 (centres unmarked) [Compound 8]	0.609 µM	–	76.573%	–
OC(CN1CCN(Cc2nc3c(Cl)ccc(F)c3[nH]2)CC1)C1CCCCC1 (centres unmarked) [Compound 156]	–	–	86.133%	–
CC(C)(C)C(O)CN1C2CC1CN(CC(=O)NC13CC4CC(CC(C4)C1)C3)C2 (centres unmarked) [Compound 293]	1.68 µM	–	38.151%	–
COc1cc(F)cc(NC(=O)CN2C[C@@H]3C[C@H]2CN3CC(=O)NC(C)(C)C)c1 [Compound 275]	–	–	93.716%	–
Fc1cc(Cl)c2nc(CN3CCN(CCc4ccccc4)CC3)[nH]c2c1 [Compound 69]	0.394 µM	–	86.68%	–
CC(C)(C)NC(=O)CN1C[C@@H]2C[C@H]1CN2CC(=O)Nc1ccc(F)c(Cl)c1 [Compound 23]	–	–	91.472%	–
O=C(CN1CC2CC1CN2CC(=O)NC1(C(F)(F)F)CC1)Nc1cc(F)cc(OC(F)F)c1 (centres unmarked) [Compound 56]	0.297 µM	–	70.217%	–
O=C(CN1C[C@@H]2C[C@H]1CN2CC(=O)NC1(C(F)(F)F)CC1)Nc1cc(F)cc(OC(F)F)c1 [Compound 324]	–	–	100.07%	–
COc1cccc(CN2CCN(Cc3nc4c(Cl)cc(F)cc4[nH]3)CC2)c1 [Compound 66]	0.306 µM	–	88.018%	–
CC(C)(NC(=O)CN1CC2CC1CN2Cc1nc2c(Cl)ccc(F)c2[nH]1)C(F)(F)F (centres unmarked) [Compound 149]	0.407 µM	–	99.801%	–
Fc1cc(Cl)c2nc(CN3CC4CCC(C3)N4CCC3CCCC3)[nH]c2c1 [Compound 84]	–	–	101%	–
Cc1ccc(Cl)c2nc(CN3CC4CC(C3)N4CC(=O)NC(C)(C)C)[nH]c12 [Compound 217]	–	–	100.76%	–
Cc1cccc2[nH]c(CN3CC4CC(C3)N4CCC3CCOCC3)nc12 [Compound 204]	–	–	3.6634%	–
CC(C(=O)Nc1ccc(F)c(Cl)c1)N1CC2CC(C1)N2CC(=O)NC(C)(C)C (centres unmarked) [Compound 29]	0.342 µM	–	90.315%	–
COc1cc(NC(=O)CN2CC3CC(C2)N3CC(=O)NC(C)(C)C)ccc1Cl [Compound 331]	–	–	102.24%	–
COc1cccc2[nH]c(CN3CC4CCC(C3)N4CC(=O)NC(C)(C)C)nc12 [Compound 192]	0.334 µM	–	76.034%	–
Fc1cc(Cl)c2nc(CN3CC4CCC(C3)N4CCOC3CCCCC3)[nH]c2c1 [Compound 95]	–	–	100.41%	–
CC(C)(NC(=O)CN1C2CC1CN(Cc1nc3c(OC(F)F)ccc(F)c3[nH]1)C2)C(F)(F)F [Compound 184]	0.2 µM	–	86.326%	–
CN(C(=O)CN1C2CC1CN(Cc1nc3c(Cl)cc(F)cc3[nH]1)C2)C1CCCC1 [Compound 110]	–	–	91.767%	< 0.0782 µM
O=C(CN1C[C@H]2C[C@@H]1CN2CC(=O)NC1(C(F)(F)F)CC1)Nc1ccc(F)c(Cl)c1 [Compound 28]	1.57 µM	–	39.491%	–
CC1(C(=O)NCCN2C3CC2CN(Cc2nc4c(Cl)cc(F)cc4[nH]2)C3)CC1 [Compound 121]	0.254 µM	–	96.032%	–

Compound	IC50 [1]	% Inhibition (Single Point Data) (Testing Conc 1, HEK-293 natClytin/TASK1+Cav3.1 cell line)	% Inhibition (Single Point Data) [2]	IC50
COc1cc(F)cc(NC(=O)CN2CC3CC(C2)N3CC(=O)NC2(C(F)(F)F)CC2)c1 [Compound 333]	0.178 µM	–	82.813%	–
CC(C(=O)NC(C)(C)C)N1C2CC1CN(CC(=O)Nc1ccc(F)c(Cl)c1)C2 (centres unmarked) [Compound 260]	0.274 µM	–	80.656%	–
CC1(C(=O)OCCN2C3CC2CN(Cc2nc4c(Cl)cc(F)cc4[nH]2)C3)CC1 [Compound 143]	0.174 µM	–	78.298%	–
O=C(CN1CC2CC(C1)N2CCNC(=O)C1(C(F)(F)F)CC1)Nc1ccc(F)c(Cl)c1 [Compound 16]	–	–	94.311%	–
O=C(CN1C2CC1CN(Cc1nc3c(Cl)ccc(F)c3[nH]1)C2)NC1(C(F)(F)F)COC1 [Compound 180]	–	–	82.621%	–
Fc1cc(Cl)c2nc(CN3CCN(Cc4ccc5c(c4)OCCO5)CC3)[nH]c2c1 [Compound 68]	0.215 µM	–	87.04%	–
O=C1CCCCN1CCN1C2CCC1CN(Cc1nc3c(Cl)cc(F)cc3[nH]1)C2 [Compound 97]	0.367 µM	–	79.865%	–
CC1(NC(=O)CN2C3CCC2CN(Cc2nc4c(Cl)cc(F)cc4[nH]2)C3)COC1 [Compound 82]	–	–	98.209%	–
CC(C)(C)NC(=O)CN1C2CCC1CN(Cc1ncc3ccccc3n1)C2 [Compound 186]	–	–	5.7091%	–
CC(C)(C)C(=O)NCCN1C2CC1CN(Cc1nc3c(Cl)cc(F)cc3[nH]1)C2 [Compound 134]	–	–	94.728%	–
CC(C)(NC(=O)CN1C2CC1CN(CC(=O)Nc1cc(F)cc(OC(F)F)c1)C2)C(F)(F)F [Compound 224]	0.159 µM	–	83.389%	–
CC(C(=O)Nc1cc(F)cc(OC(F)F)c1)N1C[C@@H]2C[C@H]1CN2CC(=O)NC(C)(C)C (some centres unmarked) [Compound 265]	–	–	88.764%	–
Cc1ccc(Cl)cc1NC(=O)CN1CC2CC(C1)N2CC(=O)NC(C)(C)C [Compound 221]	0.882 µM	–	48.175%	–
CC(C)(C)NC(=O)CN1C2CC1CN(CC(=O)Nc1cc(F)cc(Cl)c1)C2 [Compound 10]	0.143 µM	–	83.732%	–
CC(C)(C)S(=O)(=O)CCN1C2CC1CN(CC(=O)Nc1cc(F)cc(Cl)c1)C2 [Compound 50]	–	–	57.816%	–
CC(C)(C)NC(=O)CN1CCN(Cc2nnc(-c3cc(F)cc(Cl)c3)[nH]2)CC1 [Compound 61, N-tert-butyl-2-[4-[[5-(3-chloro-5-fluoro-phenyl)-4H-1,2,4-triazol-3-yl]methyl]piperazin-1-yl]acetamide]	2.8 µM	40.739%	–	–
CC(C)(C)NC(=O)CN1C2COCC1CN(Cc1nc3c(Cl)cc(F)cc3[nH]1)C2 [Compound 148]	–	–	11.572%	–
COc1cccc(NC(=O)CN2CC3CC2CN3CCNC(=O)C2(C(F)(F)F)CC2)c1 (centres unmarked) [Compound 237]	–	–	35.987%	–
Cc1cc(CNC(=O)CN2C[C@@H]3C[C@H]2CN3CC(=O)NC(C)(C)C)nn1-c1ccccc1 [Compound 274]	–	–	13.426%	–
Fc1ccc(Cl)c2nc(CN3CC4CC(C3)N4CC(F)(F)C3CCCCC3)[nH]c12 [Compound 176]	0.128 µM	–	83.015%	–
COc1cc(NC(=O)CN2CC3CC(C2)N3CC(=O)NC2(C(F)(F)F)CC2)cc(F)c1F [Compound 352]	0.133 µM	–	–	–
Fc1cc(Cl)c2nc(CN3CC4CC(C3)N4CC3CCC(F)(F)CC3)[nH]c2c1 [Compound 98]	0.231 µM	–	92.211%	–

The next lines start with results.

IC50 [1]	% Inhibition (Single Point Data) (Testing Conc 1, HEK-293 natClytin/TASK1+Cav3.1 cell line)	Compound	% Inhibition (Single Point Data) [2]	IC50
0.157 µM	–	O=C(CN1CC2CC1CN2CCNC(=O)C1(C(F)(F)F)CC1)Nc1cc(F)cc(Cl)c1 (centres unmarked) [Compound 227]	78.995%	–
0.759 µM	–	O=C(CN1C[C@@H]2C[C@H]1CN2CC(=O)NC1(C(F)(F)F)CC1)NC12CC3CC(CC(C3)C1)C2 [Compound 280]	61.038%	–
0.162 µM	–	CC(C)(C)NC(=O)CN1C[C@H]2COC[C@@H](C1)[C@@H]2CC(=O)Nc1cc(F)cc(Cl)c1 [Compound 372]	–	–
3.33 µM	–	O=C(CN1C[C@@H]2C[C@H]1CN2CCC1CCOCC1)NC12CC3CC(CC(C3)C1)C2 [Compound 291]	18.238%	–
0.734 µM	–	C[C@H](NC(=O)CN1C[C@@H]2C[C@H]1CN2CC(=O)NC(C)(C)C)C12CC3CC(CC(C3)C1)C2 [Compound 326]	66.987%	–
0.241 µM	–	COc1cc(NC(=O)CN2C[C@@H]3C[C@H]2CN3CC(=O)NC(C)(C)C)ccc1F [Compound 310]	84.193%	–
0.082 µM	–	CC(C)(C)NC(=O)CN1C[C@@H]2C[C@H]1CN2CC(=O)Nc1ccc(Cl)c(OC(F)F)c1 [Compound 357]	–	–
0.234 µM	–	CC(C(=O)Nc1ccc(F)c(OC(F)F)c1)N1C[C@@H]2C[C@H]1CN2CC(=O)NC(C)(C)C (some centres unmarked) [Compound 263]	90.098%	–
0.0893 µM	–	CC(C)(C)NC(=O)CN1CC2CC1CN2CC(=O)Nc1cc(F)cc(OC(F)F)c1 (centres unmarked) [Compound 231]	95.51%	–
0.455 µM	–	CC(C)(C)NC(=O)CN1C[C@@H]2CC[C@H]1CN2CC(=O)Nc1ccc(F)c(OC(F)F)c1 [Compound 267]	73.222%	–
0.888 µM	–	CC(C)(C)NC(=O)CN1C[C@H]2CC[C@@H]1CN2CC(=O)Nc1ccc(F)c(Cl)c1 [Compound 269]	62.186%	–
0.37 µM	–	Fc1ccc(Cl)c2nc(CN3CCN(CC4(F)CCC(F)(F)CC4)CC3)[nH]c12 [Compound 155]	80.753%	–
2.08 µM	–	CC1(C)CC(CN2C[C@@H]3C[C@H]2CN3CC(=O)NC23CC4CC(CC(C4)C2)C3)CCO1 (some centres unmarked) [Compound 298]	26.791%	–
4.02 µM	–	O=C(CN1C[C@@H]2C[C@H]1CN2CC1(F)CCC(F)(F)CC1)NC12CC3CC(CC(C3)C1)C2 [Compound 279]	79.691%	–
3.39 µM	–	CC(C)(C)NC(=O)CN1C[C@@H]2C[C@H]1CN2CCNC(=O)C12CC3CC(CC(C3)C1)C2 [Compound 323]	17.66%	–
